Values quoted from earlier work, collected in paper PMC6271933, “Evaluation of the Toxicity of 5-Aryl-2-Aminoimidazole-Based Biofilm Inhibitors against Eukaryotic Cell Lines, Bone Cells and the Nematode Caenorhabditis elegans” (Molecules, 2014).

Experiments:
[1] = test system: murine-grafted tumors, including P388 and L1210 leukemias, and solid tumors; set-up: method as in PMID 1783523, PMID 15133248; conditions: cited from earlier work
several tumor cell lines = test system: several tumor cell lines; set-up: method as in PMID 1783523, PMID 15133248; conditions: cited from earlier work
[2] = test system: calcium entry in PC12 cells; set-up: method as in PMID 15777959; conditions: cited from earlier work
mouse ES cells = test system: mouse ES cells; set-up: method as in PMID 2998604; conditions: by inhibiting matrix metalloproteinase 2; cited from earlier work
[3] = test system: epidermal growth factor-stimulated DNA synthesis in squamous cell tumors; conditions: cited from earlier work
A-431 cells = test system: A-431 cells; set-up: method as in PMID 9748366, PMID 12939464; conditions: cited from earlier work
[4] = test system: GH4C1 rat pituitary and N2A mouse neuroblastoma cell lines; set-up: method as in PMID 18493660; conditions: compared with parent molecule bromoageliferin; cited from earlier work
Caenorhabditis elegans = test system: Caenorhabditis elegans; set-up: method as in PMID 22292413; conditions: cited from earlier work
HaCaT keratinocyte cells = test system: HaCaT keratinocyte cells; set-up: method as in PMID 22292413; conditions: cited from earlier work

For `NC[C@H](Cl)[C@@H](O)c1c[nH]c(N)n1` [2a, girolline], the “cytotoxicity in vivo against murine-grafted tumors” value [1] is listed as “significant cytotoxicity” and the “cytotoxicity in vitro against several tumor cell lines” value (several tumor cell lines) is listed as “significant cytotoxicity”.
For `Nc1nc([C@@H]2c3[nH]c(N)nc3C[C@H](CNC(=O)c3cc(Br)c[nH]3)[C@H]2CNC(=O)c2cc(Br)c(Br)[nH]2)c[nH]1` [2b, bromoageliferin], the “calcium entry in PC12 cells” value [2] is listed as “inhibit the calcium entry”.
For `Nc1nc2c(-c3cc(Br)c(Br)[nH]3)nccc2[nH]1` [2d, ageladine A], the “angiogenesis in a model using mouse ES cells” value (mouse ES cells) is given as “reduce angiogenesis”.
In the case of `COc1ccc(Cc2nc(NC3=NC(=O)N(C)C3=O)n(C)c2Cc2ccc(O)cc2)cc1` [2j, naamidine A], the “inhibition of epidermal growth factor-stimulated DNA synthesis” value ([3]; squamous cell tumors) is listed as “potently inhibit” and the “cell cycle arrest of A-431 cells” value (A-431 cells) is listed as “arrest in the G1 phase”.
For `COc1ccc(Cc2[nH]c(=N)n(C)c2Cc2ccc(O)cc2)cc1` [2m, naamine A], the “ability to inhibit EGFR stimulated DNA synthesis” value ([3]; compared with naamidine A) is given as “markedly decreased ability to inhibit”.
In the case of `NC[C@H]1Cc2nc(N)[nH]c2C[C@@H]1CN` [2n], the “cytotoxicity in GH4C1 rat pituitary and N2A mouse neuroblastoma cell lines” value [4] is given as “lack the cytotoxicity”.
For `NC[C@@H]1Cc2[nH]c(N)nc2C[C@@H]1CN` [2o], the “cytotoxicity in GH4C1 rat pituitary and N2A mouse neuroblastoma cell lines” value [4] is listed as “lack the cytotoxicity”.
For `C/C(=C\c1ccccc1)Cn1cc(CCCCCc2c[nH]c(N)n2)nn1` [2r], the “toxicity against Caenorhabditis elegans” value (Caenorhabditis elegans) is listed as “lack toxicity” and the “effect on HaCaT keratinocyte cells” value (HaCaT keratinocyte cells) is listed as “differential effect”.
For dibromoageliferin [2c], the “calcium entry in PC12 cells” value [2] is given as “inhibit the calcium entry”.
